# Experimental data: patent US6043283A, “Tyramine compounds and their neuronal effects” (priority 1997, dated 2000)
# “Also recorded” adds a separate entry of the source. Where two headings read alike, the source gives them in different places.
# What was measured:
# [1] = tested on: Aβ1-42-stimulated microglia; assay type: cell-based, rat; conditions: for blocking of Aβ1-42 induced microglial neurotoxicity by peptides: 10 μmoles/liter peptide, 1 μmole/liter Aβ1-42
# Summary of the method: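 E18 rat hippocampal cultures, microglia depleted with saporin–ac-LDL (10 μg/ml, 12 h) on day 14, then given test substances at 10μM with or without exogenous microglia (100,000 cells) for 72 h. Neurons immunostained (NF plus MAP-2) and nuclei counted by fluorescence microscopy; survival expressed as % of parallel untreated controls.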
# quinolinic acid (QUIN) = assay: protection of neurons against quinolinic acid; assay type: cell-based; conditions: QUIN (100 μM in FIG. 13)
# From the text: (§1) FIG. 32 is a graph showing the specificity of tyramine compounds to NTox. […]
# NMDA receptor = assay: whole cell current elicited by NMDA in Xenopus oocytes injected with NMDA R1 and R2 subunit cRNAs; assay type: cell-based; conditions: FIG. 34
# From the text: FIG. 34 is a graph shorting the % maximal current peak elicited by NMDA, octopamine and tyramine compounds in the presence of a given NMDA concentration. […].
# The precise mechanism of NTox that leads to the destruction of neurons is only partially characterized. Based upon extensive testing with receptor antagonists, it has been discovered that two classes of neurotransmitter receptors are involved--the n-methyl D-aspartate (NMDA) class of […] receptors and the Muscarinic (M receptors) class of cholinergic receptors. […] […]. Further study to determine if tyramine compounds act upon the NMDA receptor itself involved expression of the NMDA receptor complex in Xenopus oocytes and measurement of ionic fluxes across the oocyte membrane that are elicited by NMDA. […] […]. […] Thus, tyramine compounds appear to have several actions, one of which is upon the NMDA receptor.
# NTox = assay: protection of neurons against isolated NTox applied directly; assay type: cell-based
# From the text: FIG. 32 is a graph showing the specificity of tyramine compounds to NTox. […].
# Initial studies to characterize the neuroprotective effect of tyramine compounds employed microglia-neuron co-culture assays in the presence of Aβ or isolated senile plaques. Inhibition of neuron killing in […]--inhibition of microglial activation by Aβ or plaques; inhibition of NTox production and release by microglia; or inhibition of action of NTox upon neurons. […] Effective doses in the low nmolar range show the tyramine compounds to be very potent agents compared with low μmolar range of other neuroprotective drugs under development for neurological disorders.
# AMAA = assay: protection of neurons against AMAA; assay type: cell-based; conditions: FIG. 32
# From the text: as §1
# [2] = tested on: human microglia stimulated with S5; assay type: cell-based;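 further: drugs applied at 10 µM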
# [3] = tested on: reactive microglia in rat neocortex; assay: brain inflammatory response after infusion into neocortex of adult rat; assay type: in vivo; conditions: 0.5 nmoles Aβ1-42, co-infusion of 1.0 nmole peptide; 5 days
# rat microglia [4] = assay type: binding; conditions: 6 hours, 37° C.
# Description: Synthetic Aβ peptides were linked to Sepharose beads (Pharmacia) in coupling buffer (0.1 M NaHCO3, 0.5 M NaCl, pH 8.3) containing 20% DMSO. This solution was combined with an appropriate volume of CNBr-activated Sepharose 4B (10 mg protein per ml of bead; Pharmacia protocol) and mixed overnight on a platform mixer at room temperature. Remaining active groups on the beads were blocked by 1.0 M glycine and excess uncoupled peptides removed from this bead-peptide complex by washing with three cycles of alternating pH (0.1 M acetate buffer, pH 4.0, followed by 0.1 M Tris-HCL buffer, pH 8.0, each buffer containing 0.5 M NaCl). Coupled beads (10^4 per ml) were placed in 35 mm culture dishes covered with 250,000 adhering microglia at 37° C. in 1.5 ml N2 medium in accordance with the procedure of Giulian et al., 1995a. The numbers of microglia which detached from the plate and bound to coupled beads were determined at the end of a 6 hour incubation period by inverted phase microscopy with 100 beads scored from each of three sister cultures. Glycine and bovine serum albumin (BSA) coupled beads were used as controls.
# [5] = tested on: NTox released by Aβ1-42-stimulated microglia (neuron killing); assay: cells; assay type: cell-based, rat; conditions: 72 hours; FIG. 30 experiment
# rat microglia [6] = assay: binding of Aβ-coupled microspheres to microglia; conditions: 4 hours at 37° C. (72 h in FIG. 23)
# human microglia [7] = assay: induction of neuron-killing human microglia; assay type: cell-based; conditions: 1 μmole/liter synthetic peptides
# rat microglia [8] = assay: microglial morphology / reactivity; assay type: cell-based
# Description: Equal amounts of plaque protein (normalized to total amine content at 400 μmoles/l) were added to neuronal cultures in the presence (100,000 cells per culture) or absence of rat microglia. […] The chromatogram was developed with 80% glass distilled formic acid at a flow rate of 0.3 ml per minute and monitored at 280 nm.
# Bright field photomicrographs of rat microglia cultures exposed to peak S1 (FIG. 20A) or peak S5 (FIG. 20B) and immuno-stained for the presence of Aβ.
# FIGS. 22A-F depict cellular responses upon exposure to synthetic Aβ peptides. […] Bar=25 microns.
# human microglia [9] = assay: nitrite/nitrate production, human microglia; assay type: cell-based
# Description: Nitrites and nitrates, stable byproducts of nitric oxide synthetase (NOS) served as markers for nitric oxide (NO) synthesis (Ignarro, 1990). […]; for 24 to 72 hours incubated in the presence of neuritic/core plaques or Aβ peptides) were measured by the Griess method set forth by Beckman et al., 1990 against a standard curve ranging from 0.1 to 50.0 μM nitrate.
# [10] = tested on: rat microglia / hippocampal neurons; conditions: for neuron loss with conditioned media from microglia: 10% vol/vol conditioned media, microglia with 1 μmole/l peptide; for induction of neurotoxic microglia / neuron killing: rat microglia, mostly 1 μmole/l; for killing of neurons: rat, hippocampal neurons, 72 h, 1 µM
# [11] = assay type: physicochemical; conditions: chemically defined culture media, 37° C.; Table 2
# From the text: Solubility of peptides is described for chemicallydefined culture media a […]
# macrophages = assay: competition with microspheres coupled to Aβ1-42, macrophages; assay type: binding; conditions: 4 hours at 37° C.
# microglia = assay: inhibition of SpheresAβ1-42 binding to microglia; design: species or system rat; conditions: 10 μmoles/l, 4 hours, 37° C.
# [12] = tested on: plaque-stimulated microglia; assay: blocking of plaque-induced microglial neurotoxicity; assay type: cell-based, rat; conditions: FIG. 16C
# kidney cells = assay: competition with microspheres coupled to Aβ1-42, kidney cells; assay type: binding; conditions: 4 hours at 37° C.
# hippocampal neurons = assay type: cell-based, rat; conditions: 100 μmoles/l
# astroglia = assay type: cell-based, rat; conditions: 100 μmoles/l
# From the text: FIGS. 21A-D display toxic actions of synthetic Aβ peptides upon neurons. […]. There is, however, a generalized cytotoxic action by Aβ25-35 at>30 μmoles/l on both neurons (FIG. 21A) and astroglia (FIG. 21B). In the absence of microglia, none of the Aβ peptides (at 1 μmole/l) produce destruction of neurons. […] These observations point to the need to deplete neuron cultures of microglia when assessing mechanisms of Aβ toxicity. […]; FIG. 21E).
# . Briefly, hippocampal cells obtained from embryonic stage 18 rat fetuses were dispersed mechanically in the presence of 0.125% trypsin and plated onto poly-L-lysine coated glass coverslips in 24 well plates at 250,000 cells per well (resulting in adhering cell densities of about 1250 cells per mm^2) in chemically-defined N2 culture media containing 5% fetal bovine serum. Gradual reduction of serum began on day 10 in vitro with daily 1:1 volume replacements with chemically-defined media, until a final concentration of 0.6% serum was achieved. […]
# On day 14 of culture, immediately following saporin treatment, test substances were added to the hippocampal cultures. […] Immuno-labeled cells per field and nuclei per field were scored at 200X magnification using fluorescence microscopy. Data were expressed as % mean survival expressed in terms of parallel untreated control cultures after scoring at least 20 randomly selected fields for each of 3 coverslips.
# [13] = tested on: scavenger receptor II mRNA / microglia; assay: microsphere implants in brain neocortex: reactive microglia and scavenger receptor mRNA; assay type: in vivo
# From the text: FIGS. 7A, B, and C show SpheresAβ1-42 in vivo. […]. […] Microglia were visualized by uptake of fluorescent labeled acetylated LDL, DiI-ac-LDL Bar=40 μm, FIG. 7A; 25 μm FIG. 7B and C.
compound,measurement,setting,value
NC(CCCP(=O)(O)O)C(=O)O (stereo not drawn) [AP5],"drug blockade of neuron killing, rat microglia",[1],prevented neuronal loss; also recorded: prevented neuron death
same,protection against quinolinic acid,quinolinic acid (QUIN),prevented from killing neurons
same,effect on current elicited by NMDA,NMDA receptor,could be blocked
same,"neuroprotective effects against NTox, concentration range",NTox,~100 nM
same,inhibition of killing action of NTox applied to neurons,"NTox; isolated NTox, FIGS. 13, 32",NTox can be blocked
same,protection against AMAA,AMAA,prevented from killing neurons
same,"drug blockade of neuron killing, human microglia",[2],prevented neuron death
Aβ1-42: synthetic human β-amyloid peptide 1-42,local brain inflammatory response,[3],produces an inflammatory response
same,microglial adherence to coupled Sepharose beads,rat microglia [4],anchored to beads; also recorded: provided an anchoring site for microglia
same,neurons destroyed by Aβ-stimulated microglia,[5],about 65%
same,binding of peptide-coupled microspheres to microglia,rat microglia [6],marked glial binding; also recorded: readily bind; also recorded: readily engulfed by microglia
same,induction of neurotoxic human microglia,human microglia [7],very potent inducers of neurotoxic human microglia; also recorded: stimulated release of neurotoxin from human microglia
same,microglial morphology / reactivity,rat microglia [8],morphological changes with retraction of processes
same,"release of nitrate or nitrite, human microglia",human microglia [9],did not bring about release of nitrate or nitrites
same,"neuron killing, microglia separated from neurons (no contact)",[10],stimulated microglia to destroy neurons
same,neuron killing,"[10]; 100 nmoles/liter, rat microglia 500 cells per mm^2",destroyed nearly all neurons
same,neuron loss with conditioned media from microglia,[10],Significant neuron loss occurred
same,neuron kill,"[10]; ""aged"" Aβ1-42",77.5%±2.6%
same,neuron kill,[10]; fresh Aβ1-42,75.1%±5.8%
same,induction of neurotoxic microglia / neuron killing,[10]; listed as 1-42,induced toxic effects
same,killing of neurons,[10],70-80%
same,Solubility,[11],very insoluble
"Aβ10-16: Aβ peptide residues 10-16 (YEVHHQK; Amyloid-beta protein 42; UniProt P05067 681-687, looked up, fragment)","competition with Aβ1-42 microspheres, macrophages",macrophages,competition occurs with the macrophages in a dose dependent manner
same,blocking of Aβ1-42 induced microglial neurotoxicity by peptides,[1],blocked neurotoxin production
same,IC50,"[1]; read-out: ED50 (blocking of Aβ1-42 induced neurotoxicity), FIG. 16B",~0.03 µM
same,inhibition of SpheresAβ1-42 binding by peptides,microglia,effectively prevented
same,blocking of plaque-induced microglial toxicity by peptides,[12],blocked plaque-induced toxicity in vitro
same,binding of peptide-coupled microspheres to microglia,rat microglia [6],readily bind; also recorded: able to bind to microglia
same,"competition with Aβ1-42 microspheres, kidney cells",kidney cells,no changes in binding
"Aβ17-43: Aβ peptide residues 17-43 (LVFFAEDVGSNKGAIIGLMVGGVVIAT; Amyloid-beta protein 42; UniProt P05067 688-714, looked up, fragment)",blocking of Aβ1-42 induced microglial neurotoxicity by peptides,[1],did not
same,inhibition of SpheresAβ1-42 binding by peptides,microglia,did not
same,induction of neurotoxic human microglia,human microglia [7],inactive
same,microglial morphology / reactivity,rat microglia [8],does not alter microglial morphology
same,neuron loss with conditioned media from microglia,[10],undamaged
"Aβ25-35: Aβ peptide residues 25-35 (GSNKGAIIGLM; Amyloid-beta protein 42; UniProt P05067 696-706, looked up, fragment)",destruction of neurons,hippocampal neurons,~90%
same,destruction of glia,astroglia,~90%
same,binding of peptide-coupled microspheres to microglia,rat microglia [6],little cell binding
same,Solubility,[11],soluble
SpheresAβ1-42: Aβ1-42 coupled to (fluorescent) microspheres,binding of peptide-coupled microspheres to microglia,rat microglia [6],rapidly engulfed by cultured microglia
same,binding of peptide-coupled microspheres to microglia,rat microglia [6]; listed as Aβ1-42-spheres,localized specifically within DiI-ac-LDL(+) microglia
same,binding of peptide-coupled microspheres to microglia,rat microglia [6]; listed as Aβ1-42 coupled-microspheres,readily taken up by microglia
same,increase in scavenger receptor mRNA vs undamaged tissue or SphereBSA,[13]; two weeks after implantation,5 fold
same,reactive microglia around implanted spheres,[13]; weeks after implantation,chronically stimulate the presence of reactive cells
same,induction of neurotoxic microglia / neuron killing,[10],induced neuron killing
same,killing of neurons,[10],70-80%
